Patent US9409866B2, “Pyridine-2-amides useful as CB2 agonists” (Hoffmann-La Roche Inc., priority 2012, dated 2016)
Like-named read-outs stand apart in the source and are kept apart here.

Assays:
[1] = molecular target: human CB2 receptors (Homo sapiens (Human), UniProt P34972); assay: functional cAMP assay, CHO cells expressing human CB2; assay type: cell-based
Method in brief: (§1)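 Agonist EC50 values came from cAMP levels in CHO cells carrying human CB1 or CB2, after 30 min of compound treatment at 30 °C in the presence of 1 mM IBMX. Detection used a time-resolved FRET cAMP kit read against a cAMP standard curve.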

[2] = molecular target: human CB1 receptors (Homo sapiens (Human), UniProt P21554); assay: functional cAMP assay, CHO cells expressing human CB1; assay type: cell-based
Method in brief: as §1

[3] = read-out: Human CB1 EC50; functional cAMP assay, CHO cells expressing human CB1
[4] = functional cAMP assay, CHO cells expressing human CB1; read-out: Human CB1 EC50
[5] = Human CB1 EC50 (uM), functional cAMP assay, CHO cells expressing human CB1

Chain of human CB1 receptors (P21554 whole entry): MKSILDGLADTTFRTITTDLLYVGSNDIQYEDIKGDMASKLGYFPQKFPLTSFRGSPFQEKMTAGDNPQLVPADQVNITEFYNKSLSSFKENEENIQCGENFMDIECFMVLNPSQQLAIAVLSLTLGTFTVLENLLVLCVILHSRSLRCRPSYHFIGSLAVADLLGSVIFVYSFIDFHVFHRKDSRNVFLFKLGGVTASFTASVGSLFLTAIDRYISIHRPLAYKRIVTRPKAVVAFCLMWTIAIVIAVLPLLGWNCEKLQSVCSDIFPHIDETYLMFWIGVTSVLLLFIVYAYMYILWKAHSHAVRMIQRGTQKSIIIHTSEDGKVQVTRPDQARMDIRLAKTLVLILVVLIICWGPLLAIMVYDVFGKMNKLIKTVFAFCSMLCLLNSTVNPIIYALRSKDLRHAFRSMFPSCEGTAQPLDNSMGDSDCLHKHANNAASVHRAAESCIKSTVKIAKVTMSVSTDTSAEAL
Chain of human CB2 receptors (P34972 whole entry): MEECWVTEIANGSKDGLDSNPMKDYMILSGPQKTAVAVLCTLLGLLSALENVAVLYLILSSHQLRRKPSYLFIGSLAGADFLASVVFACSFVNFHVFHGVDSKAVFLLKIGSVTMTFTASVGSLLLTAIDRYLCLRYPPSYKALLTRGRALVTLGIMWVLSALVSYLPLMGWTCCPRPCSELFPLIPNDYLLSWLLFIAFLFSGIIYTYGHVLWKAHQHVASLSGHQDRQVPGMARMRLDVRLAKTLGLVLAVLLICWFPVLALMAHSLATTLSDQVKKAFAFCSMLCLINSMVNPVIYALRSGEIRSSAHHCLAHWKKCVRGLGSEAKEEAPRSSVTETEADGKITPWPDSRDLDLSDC

Molecule `Cc1nc(C(C)(NC(=O)c2cc(OCC(F)(F)F)c(C3(F)COC3)cn2)C2CC2)no1` (single isomer, unassigned) [Example 167, N-[1-cyclopropyl-1-(5-methyl-1,2,4-oxadiazol-3-yl)ethyl]-5-(3-fluorooxetan-3-yl)-4-(2,2,2-trifluoroethoxy)pyridine-2-carboxamide] has an EC50 ([1]; Human CB2 EC50 (uM)) of 0.0281 µM and an EC50 [2, 3] of over 10 µM.

For `Cc1nc(C(C)(NC(=O)c2cc(OCC(F)(F)F)c(C3CC3)cn2)C(=O)N(C)C)no1` (centres unmarked) [Example 181, 5-cyclopropyl-N-[1-(dimethylamino)-2-(5-methyl-1,2,4-oxadiazol-3-yl)-1-oxopropan-2-yl]-4-(2,2,2-trifluoroethoxy)pyridine-2-carboxamide], the EC50 ([1]; read-out: Human CB2 EC50) was 0.002 µM and the EC50 [2, 4] was over 10 µM.

`CC(CC(N)=O)(NC(=O)c1cc(OCC(F)(F)F)c(C2CC2)cn1)C1CC1` (single isomer, unassigned) [Example 243, N-[4-amino-2-cyclopropyl-4-oxobutan-2-yl]-5-cyclopropyl-4-(2,2,2-trifluoroethoxy)pyridine-2-carboxamide] showed an EC50 ([1]; Human CB2 EC50 (uM)) of 0.0005 µM and an EC50 [2, 5] of over 10 µM.

Work on `CNC(=O)[C@@H](NC(=O)c1cc(OCC(F)(F)F)c(C2CC2)cn1)C(C)(C)C` [Example 48, 5-Cyclopropyl-4-(2,2,2-trifluoro-ethoxy)-pyridine-2-carboxylic acid ((S)-2,2-dimethyl-1-methylcarbamoyl-propyl)-amide] yielded an EC50 ([1]; read-out: Human CB2 EC50) of 0.00158 µM and an EC50 [2, 4] of 0.661 µM.

Molecule `NC(=O)CC1(NC(=O)c2cc(OCC(F)F)c(C3(F)CCC3)cn2)CS(=O)(=O)C1` [Example 308, N-[3-(2-amino-2-oxoethyl)-1,1-dioxothietan-3-yl]-4-(2,2-difluoroethoxy)-5-(1-fluorocyclobutyl)pyridine-2-carboxamide] has an EC50 ([1]; read-out: Human CB2 EC50) of 0.073 µM and an EC50 [2, 4] of over 10 µM.

Molecule `CC(C)(C)C(NC(=O)c1cc(OCC2CC2)c(N2CC(F)(F)C2)cn1)C(N)=O` (single isomer, unassigned) [Example 260, N-[1-amino-3,3-dimethyl-1-oxobutan-2-yl]-4-(cyclopropylmethoxy)-5-(3,3-difluoroazetidin-1-yl)pyridine-2-carboxamide] has an EC50 ([1]; Human CB2 EC50 (uM)) of 0.0209 µM and an EC50 [2, 5] of over 10 µM.

`CN(C(=O)c1cc(-c2cccc(Cl)c2)ccn1)C(C)(C)C` [Example 86, 4-(3-Chloro-phenyl)-pyridine-2-carboxylic acid tert-butyl-methyl-amide] gave an EC50 ([1]; read-out: Human CB2 EC50) of 0.145 µM and an EC50 [2, 4] of over 10 µM.

For `Cc1nc(C(C)(CC2CC2)NC(=O)c2cc(OCCF)c(C3CC3)cn2)no1` (single isomer, unassigned) [Example 157, 5-cyclopropyl-N-[1-cyclopropyl-2-(5-methyl-1,2,4-oxadiazol-3-yl)propan-2-yl]-4-(2-fluoroethoxy)pyridine-2-carboxamide], the EC50 ([1]; Human CB2 EC50 (uM)) was 0.0036 µM and the EC50 [2, 3] was over 10 µM.

With `Cc1nc(C(C)(CC(C)(C)C)NC(=O)c2cc(OCC(F)(F)F)c(Cl)cn2)no1` (centres unmarked) [Example 83, 5-Chloro-4-(2,2,2-trifluoro-ethoxy)-pyridine-2-carboxylic acid [1,3,3-trimethyl-1-(5-methyl-[1,2,4]oxadiazol-3-yl)-butyl]-amide] the EC50 ([1]; read-out: Human CB2 EC50) was 0.025 µM and the EC50 [2, 4] was over 10 µM.

`C[C@H](Oc1cc(C(=O)NC(C)(C#N)CC2CC2)ncc1C1(F)COC1)C(F)(F)F` (stereo partly drawn) [Example 143, N-(2-cyano-1-cyclopropylpropan-2-yl)-5-(3-fluorooxetan-3-yl)-4-[(2S)-1,1,1-trifluoropropan-2-yl]oxypyridine-2-carboxamide] was tested, and the EC50 ([1]; read-out: Human CB2 EC50) was 0.246 µM and the EC50 [2, 4] was over 10 µM.

`C[C@H](Oc1cc(C(=O)NC2(CC(N)=O)CS(=O)(=O)C2)ncc1C1(F)COC1)C(F)(F)F` [Example 265, N-[3-(2-amino-2-oxoethyl)-1,1-dioxothietan-3-yl]-5-(3-fluorooxetan-3-yl)-4-[(2S)-1,1,1-trifluoropropan-2-yl]oxypyridine-2-carboxamide] gave an EC50 ([1]; read-out: Human CB2 EC50) of 0.102 µM and an EC50 [2, 4] of over 10 µM.

Work on `Cc1nc(C(C)(CS(C)(=O)=O)NC(=O)c2cc(OCCF)c(C3CC3)cn2)no1` (single isomer, unassigned) [Example 280, 5-cyclopropyl-4-(2-fluoroethoxy)-N-[2-(5-methyl-1,2,4-oxadiazol-3-yl)-1-methylsulfonylpropan-2-yl]pyridine-2-carboxamide] yielded an EC50 ([1]; Human CB2 EC50 (uM)) of 0.0786 µM and an EC50 [2, 3] of over 10 µM.

In the case of `CNC(=O)CC(C)(NC(=O)c1cc(O[C@@H](C)C(F)(F)F)c(C2CC2)cn1)C1CC1` (stereo partly drawn) [Example 250, 5-cyclopropyl-N-[2-cyclopropyl-4-(methylamino)-4-oxobutan-2-yl]-4-[(2S)-1,1,1-trifluoropropan-2-yl]oxypyridine-2-carboxamide], the EC50 ([1]; read-out: Human CB2 EC50) is reported as 0.0332 µM and the EC50 [2, 4] is reported as over 10 µM.

With `CCC(C)(NC(=O)c1cc(OCC(F)(F)F)c(C2CC2)cn1)C(N)=O` (centres unmarked) [Example 77, 5-Cyclopropyl-4-(2,2,2-trifluoro-ethoxy)-pyridine-2-carboxylic acid (1-carbamoyl-1-methyl-propyl)-amide] the EC50 ([1]; read-out: Human CB2 EC50) was 0.137 µM and the EC50 [2, 4] was over 10 µM.

In the case of `CC(C)(C)C(NC(=O)c1cc(OCC(F)(F)F)c(N2CC(F)(F)C2)cn1)C(N)=O` (single isomer, unassigned) [Example 262, N-[1-amino-3,3-dimethyl-1-oxobutan-2-yl]-5-(3,3-difluoroazetidin-1-yl)-4-(2,2,2-trifluoroethoxy)pyridine-2-carboxamide], the EC50 ([1]; Human CB2 EC50 (uM)) is reported as 0.261 µM and the EC50 [2, 5] is reported as over 10 µM.

`CN(C)C(=O)C(NC(=O)c1cc(OCC(F)(F)F)c(C2CC2)cn1)C(C)(C)C` (centres unmarked) [Example 195, 5-cyclopropyl-N-[1-(dimethylamino)-3,3-dimethyl-1-oxobutan-2-yl]-4-(2,2,2-trifluoroethoxy)pyridine-2-carboxamide] showed an EC50 ([1]; read-out: Human CB2 EC50) of 0.0034 µM and an EC50 [2, 4] of over 10 µM.

`CC(C)(C)C(NC(=O)c1cc(OCC(F)(F)F)c(N2CC(F)(F)C2)cn1)C(N)=O` (single isomer, unassigned) [Example 263, N-[1-amino-3,3-dimethyl-1-oxobutan-2-yl]-5-(3,3-difluoroazetidin-1-yl)-4-(2,2,2-trifluoroethoxy)pyridine-2-carboxamide] gave an EC50 ([1]; Human CB2 EC50 (uM)) of 0.0338 µM and an EC50 [2, 3] of over 10 µM.

`CC(CF)Oc1cc(C(=O)NC(C)(CC(N)=O)C2CC2)ncc1C1CC1` (centres unmarked) [Example 293, N-(4-amino-2-cyclopropyl-4-oxobutan-2-yl)-5-cyclopropyl-4-(1-fluoropropan-2-yloxy)picolinamide] gave an EC50 ([1]; read-out: Human CB2 EC50) of 0.0013 µM and an EC50 [2, 4] of over 10 µM.

In the case of `Cc1nc(C(C)(CC2CC2)NC(=O)c2cc(O[C@@H](C)C(F)(F)F)c(C3CCC3)cn2)no1` (stereo partly drawn) [Example 120, 5-cyclobutyl-N-[1-cyclopropyl-2-(5-methyl-1,2,4-oxadiazol-3-yl)propan-2-yl]-4-[(2S)-1,1,1-trifluoropropan-2-yl]oxypyridine-2-carboxamide], the EC50 ([1]; read-out: Human CB2 EC50) is reported as 0.0008 µM and the EC50 [2, 4] is reported as over 10 µM.

Work on `CC(C)[C@](C)(CO)NC(=O)c1cc(OCC2CC2)c(Cl)cn1` [Example 14, 5-Chloro-4-cyclopropylmethoxy-pyridine-2-carboxylic acid ((R)-1-hydroxymethyl-1,2-dimethyl-propyl)-amide] yielded an EC50 ([1]; read-out: Human CB2 EC50) of 0.0128 µM and an EC50 [2, 4] of 6.98 µM.

`CC(CC1CC1)(NC(=O)c1cc(OCC(F)(F)F)c(C2CC2)cn1)c1noc(N)n1` (single isomer, unassigned) [Example 208, N-[2-(5-amino-1,2,4-oxadiazol-3-yl)-1-cyclopropylpropan-2-yl]-5-cyclopropyl-4-(2,2,2-trifluoroethoxy)pyridine-2-carboxamide] was tested, and the EC50 ([1]; Human CB2 EC50 (uM)) was 0.0092 µM and the EC50 [2, 3] was over 10 µM.

For `Cc1nc(C(C)(CS(C)(=O)=O)NC(=O)c2cc(O[C@@H](C)C(F)(F)F)c(C3(O)CCC3)cn2)no1` (stereo partly drawn) [Example 126, 5-(1-hydroxycyclobutyl)-N-[2-(5-methyl-1,2,4-oxadiazol-3-yl)-1-methylsulfonylpropan-2-yl]-4-[(2S)-1,1,1-trifluoropropan-2-yl]oxypyridine-2-carboxamide], the EC50 ([1]; read-out: Human CB2 EC50) was 0.219 µM and the EC50 [2, 4] was over 10 µM.

`O=C(NC1(c2nccs2)COC1)c1cc(OCC2CC2)c(Cl)cn1` [Example 32, 5-Chloro-4-cyclopropylmethoxy-pyridine-2-carboxylic acid (3-thiazol-2-yl-oxetan-3-yl)-amide] was tested, and the EC50 ([1]; read-out: Human CB2 EC50) was 0.0746 µM and the EC50 [2, 4] was over 10 µM.

Molecule `Cc1nc(C(C)(CC2CC2)NC(=O)c2cc(OCC(F)F)c(C3CC3)cn2)no1` (single isomer, unassigned) [Example 154, 5-cyclopropyl-N-[1-cyclopropyl-2-(5-methyl-1,2,4-oxadiazol-3-yl)propan-2-yl]-4-(2,2-difluoroethoxy)pyridine-2-carboxamide] has an EC50 ([1]; Human CB2 EC50 (uM)) of 0.0037 µM and an EC50 [2, 5] of over 10 µM.

With `Cc1nc(C(C)(CS(C)(=O)=O)NC(=O)c2cc(OCC(F)(F)F)c(C3CCC3)cn2)no1` (centres unmarked) [Example 109, 5-Cyclobutyl-4-(2,2,2-trifluoro-ethoxy)-pyridine-2-carboxylic acid [2-methanesulfonyl-1-methyl-1-(5-methyl-[1,2,4]oxadiazol-3-yl)-ethyl]-amide] the EC50 ([1]; read-out: Human CB2 EC50) was 0.0157 µM and the EC50 [2, 4] was over 10 µM.

With `C[C@H](Oc1cc(C(=O)NC(C(N)=O)C(C)(C)C)ncc1C1CC1)C(F)(F)F` (stereo partly drawn) [Example 199, N-(1-amino-3,3-dimethyl-1-oxobutan-2-yl)-5-cyclopropyl-4-[(2S)-1,1,1-trifluoropropan-2-yl]oxypyridine-2-carboxamide] the EC50 ([1]; read-out: Human CB2 EC50) was 0.0078 µM and the EC50 [2, 4] was over 10 µM.

`CC(CC1CC1)(NC(=O)c1cc(OCC(F)(F)F)c(C2CC2)cn1)c1noc(N)n1` (single isomer, unassigned) [Example 207, N-[2-(5-amino-1,2,4-oxadiazol-3-yl)-1-cyclopropylpropan-2-yl]-5-cyclopropyl-4-(2,2,2-trifluoroethoxy)pyridine-2-carboxamide] gave an EC50 ([1]; Human CB2 EC50 (uM)) of 0.0083 µM and an EC50 [2, 5] of over 10 µM.

For `Cc1nc(C(C)(NC(=O)c2cc(OCC(F)(F)F)c(C3CC3)cn2)C(N)=O)no1` (centres unmarked) [Example 180, N-[1-amino-2-(5-methyl-1,2,4-oxadiazol-3-yl)-1-oxopropan-2-yl]-5-cyclopropyl-4-(2,2,2-trifluoroethoxy)pyridine-2-carboxamide], the EC50 ([1]; read-out: Human CB2 EC50) was 0.149 µM and the EC50 [2, 4] was over 10 µM.
